pKi: −log10 of the molar value. Structures can show the parent of a compound that is named as a salt. Where two headings read alike, the source gives them in different places.
Experiments:
α2A receptor = target: T1, α2A receptor (Homo sapiens, UniProt P08913); experiment: Competition binding, [3H]rauwolscine, human α2A receptor; conditions: for Ki: [3H]rauwolscine, read-out: pKi alpha-2 2a (converted)
T1 construct: host or cells: LM(tk-) cells, line L-α2A
T1 sequence (P08913 1-465): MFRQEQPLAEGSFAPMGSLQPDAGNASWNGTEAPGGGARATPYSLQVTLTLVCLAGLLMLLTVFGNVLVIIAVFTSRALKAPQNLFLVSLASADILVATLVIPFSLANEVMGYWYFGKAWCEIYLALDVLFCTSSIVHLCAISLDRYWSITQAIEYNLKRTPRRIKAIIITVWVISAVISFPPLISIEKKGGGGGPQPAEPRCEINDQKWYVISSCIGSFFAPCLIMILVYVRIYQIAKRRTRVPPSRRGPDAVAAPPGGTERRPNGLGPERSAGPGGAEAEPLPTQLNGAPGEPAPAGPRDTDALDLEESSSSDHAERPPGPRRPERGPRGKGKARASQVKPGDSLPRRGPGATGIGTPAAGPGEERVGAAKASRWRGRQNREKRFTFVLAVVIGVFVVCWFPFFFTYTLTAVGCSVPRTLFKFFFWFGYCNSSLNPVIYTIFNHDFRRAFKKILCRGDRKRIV
Method in brief: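 Equilibrium displacement of [3H]rauwolscine (0.5 nM) measured on membranes from stably transfected LM(tk−) lines, one per α2 subtype, in glycylglycine buffer at pH 7.6. Nonspecific binding set by 10 μM phentolamine; separation by filtration.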

[1] = target: T2, α1B Human Adrenergic Receptor (Homo sapiens, UniProt P35368); experiment: Radioligand binding, [3H]prazosin, cloned human α1B adrenergic receptor; conditions: for pKi: pKi alpha-1 1b; for Ki: read-out: pKi alpha-1 1b (converted)
T2 construct: The entire coding region of α1B (1563 bp); expressed in transfected cells
T2 sequence (P35368 1-520): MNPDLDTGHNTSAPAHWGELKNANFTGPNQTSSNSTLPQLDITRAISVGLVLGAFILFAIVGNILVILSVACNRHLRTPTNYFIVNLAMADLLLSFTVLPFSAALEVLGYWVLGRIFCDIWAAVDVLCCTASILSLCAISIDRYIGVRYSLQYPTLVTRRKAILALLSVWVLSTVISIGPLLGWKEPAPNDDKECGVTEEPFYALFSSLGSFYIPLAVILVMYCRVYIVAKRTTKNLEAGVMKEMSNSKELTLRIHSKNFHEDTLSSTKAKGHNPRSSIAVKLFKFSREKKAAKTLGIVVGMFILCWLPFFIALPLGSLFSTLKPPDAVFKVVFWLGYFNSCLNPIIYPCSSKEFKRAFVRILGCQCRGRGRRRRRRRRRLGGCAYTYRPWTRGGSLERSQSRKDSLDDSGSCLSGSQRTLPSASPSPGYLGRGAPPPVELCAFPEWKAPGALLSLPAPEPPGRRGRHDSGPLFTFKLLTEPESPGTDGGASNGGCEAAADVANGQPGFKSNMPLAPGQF
Method in brief: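 Membranes from stably transfected LM(tk−) cells, resuspended in 50 mM Tris-HCl, 1 mM MgCl2, 0.1% ascorbic acid, pH 7.5, were incubated with 0.5 nM [3H]prazosin for 20 min at 37° C. Nonspecific binding defined with 10 μM phentolamine; bound ligand separated by GF/B filtration.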

[2] = target: T3, α1C Human Adrenergic Receptor (Homo sapiens, UniProt P35348); experiment: Radioligand binding, [3H]prazosin, cloned human α1C adrenergic receptor; conditions: for Ki: read-out: pKi alpha-1 1c (converted); for pKi: pKi alpha-1 1c
T3 construct: The entire coding region of α1C (1401 bp); expressed in transfected cells
T3 sequence (P35348 1-466): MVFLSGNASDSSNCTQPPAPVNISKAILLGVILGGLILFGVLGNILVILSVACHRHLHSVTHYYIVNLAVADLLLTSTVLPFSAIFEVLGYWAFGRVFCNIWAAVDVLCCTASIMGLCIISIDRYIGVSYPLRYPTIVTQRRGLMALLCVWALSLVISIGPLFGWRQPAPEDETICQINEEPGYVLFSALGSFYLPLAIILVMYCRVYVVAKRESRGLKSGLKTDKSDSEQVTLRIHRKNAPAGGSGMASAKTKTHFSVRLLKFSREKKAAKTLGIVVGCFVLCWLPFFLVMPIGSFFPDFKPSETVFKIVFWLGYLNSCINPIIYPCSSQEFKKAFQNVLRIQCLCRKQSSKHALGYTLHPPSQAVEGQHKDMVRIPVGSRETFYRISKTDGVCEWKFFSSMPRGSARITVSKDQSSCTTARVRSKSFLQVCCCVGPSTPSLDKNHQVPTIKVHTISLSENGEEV
Method in brief: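 Membranes from LM(tk−) cells stably expressing the cloned human α1C receptor were incubated with 0.5 nM [3H]prazosin at 37° C. for 20 min in 50 mM Tris-HCl, 1 mM MgCl2, 0.1% ascorbic acid, pH 7.5. Nonspecific binding was defined with 10 μM phentolamine, and bound ligand was separated by GF/B filtration.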

[3] = LM(tk-) cell line L-α2A, SEM and n in lines below
[4] = cloned human receptor in LM(tk-) cell membranes, SEM and n in lines below
[5] = cloned human α1B receptor, LM(tk−) cell membranes
[6] = cloned human α1C receptor, LM(tk−) cell membranes
[7] = human α2A receptor, LM(tk−) cells

SMILES	pKi (α2A receptor)	Ki [1, 5] [nM]	Ki [2, 6] [nM]	Ki (α2A receptor; [7]) [nM]	pKi [1, 5]	pKi [2, 6]	other results
CC1=C(C(N)=O)C(c2cccc([N+](=O)[O-])c2)C(C(=O)NCCCN2CCC(c3ccccc3)(c3ccccc3)CC2)=C(C)N1 (stereo not drawn) [Example 61, 5-Carboxamido-1,4-dihydro-2,6-dimethyl-4-(3-nitrophenyl)-3-{N-[3-(4,4-diphenylpiperidin-1-yl)propyl]}carboxamidopyridine]							Ki (α2A receptor; [3]): 759 nM; pKi [1, 4]: 6.37; Ki [2, 4]: 3.8 nM
CC1=C(C(=O)NCCCN2CCC(c3ccccc3)(c3ccccc3)CC2)C(c2ccc([N+](=O)[O-])cc2)c2c([nH]c(=O)[nH]c2=O)N1 (stereo not drawn) [Example 64]							Ki (α2A receptor; [3]): 692 nM; pKi [1, 4]: 6.45; pKi [2, 4]: 7.45
CCC1=C(C(=O)NCCCN2CCC(c3ccccc3)(c3ccccc3)CC2)C(c2ccc([N+](=O)[O-])cc2)C(C(=O)OC)=C(C)N1 (stereo not drawn) [Example 73, 2-Ethyl-1,4-dihydro-5-methoxycarbonyl-6-methyl-4-(4-nitro) phenyl-3-(N-(3-(4,4-diphenylpiperidin-1-yl)propyl))carboxamidopyridine]	6.10						Ki [1, 4]: 148 nM; Ki [2, 4]: 0.661 nM
COC(=O)C1=C(C)NC(c2ccccc2)=C(C(=O)NCCCN2CCC(c3ccccc3)(c3ccccc3)CC2)C1c1ccc([N+](=O)[O-])cc1 (stereo not drawn) [Example 78, 1,4-Dihydro-5-methoxycarbonyl-6-methyl-4-(4-nitro)phenyl-2-phenyl-3-(N-(3-(4,4-diphenylpiperidin-1-yl)propyl))carboxamidopyridine hydrochloride hydrate]	6.14						Ki [1, 4]: 110 nM; Ki [2, 4]: 4.27 nM
CCC1=C(C(=O)NCCCN2CCC(c3ccccc3)(c3ccccc3)CC2)C(c2ccc([N+](=O)[O-])cc2)C(C(N)=O)=C(C)N1 (stereo not drawn) [Example 81, 5-carboxamido-2-ethyl-1,4-dihydro-6-methyl-4-(4-nitro)phenyl-3-(N-(3-(4,4-diphenylpiperidin-1-yl)propyl))carboxamidopyridine hydrochloride]							Ki (α2A receptor; [3]): 178 nM; pKi [1, 4]: 6.62; pKi [2, 4]: 8.72
CCOC(=O)C1=C(CC(=O)NCCCN2CCC(c3ccccc3)(c3ccccc3)CC2)NC(C)=C(C(=O)OC)C1c1ccc([N+](=O)[O-])cc1 (stereo not drawn) [Example 89, 3-Ethoxycarbonyl-1,4-dihydro-5-methoxycarbonyl-6-methyl-4-(4-nitro)phenyl-2-(N-(3-(4,4,-diphenylpiperidin-1-yl)propyl)carboxamido)methylpyridine, fumarate salt]	5.63	141	501				
COC(=O)C1=C(C)N(C)C(C)=C(C(=O)OCCCN2CCC(c3ccccc3)(c3ccccc3)CC2)C1c1ccc([N+](=O)[O-])cc1 (stereo not drawn) [Example 92, 1,4-Dihydro-5-methoxycarbonyl-1,2,6-trimethyl-4-(4-nitrophenyl)-3-[3-(4,4-diphenylpiperidin-1-yl)propoxy]carbonylpyridine hydrochloride hydrate]	5.50	58.9	3.09				
COc1ccc(C2(c3ccccc3)CCN(CCCNC(=O)C3=C(C)NC(C)=C(C(N)=O)C3c3ccc([N+](=O)[O-])cc3)CC2)cc1 (stereo not drawn) [Example 98, 5-Carboxamido-1,4-dihydro-3-{N-[3-(4-(4-methoxyphenyl)-4-phenylpiperidin-1-yl)propyl]}carboxamido-2,6-dimethyl-4-(4-nitrophenyl)pyridine hydrochloride]				355	6.52	8.32	
CCC1=C(C(N)=O)C(c2ccc([N+](=O)[O-])cc2)C(C(=O)NCCCN2CCC(O)(c3ccccc3)CC2)=C(CC)N1 (stereo not drawn) [Example 100, 5-Carboxamido-2,6-diethyl-1,4-dihydro-3-{N-(3-(4-hydroxy-4-phenylpiperidin-1-yl)propyl]}carboxamido-4-(4-nitrophenyl)pyridine hydrochloride hydrate]				794	5.83	8.36	
CCC1=C(C(N)=O)C(c2ccc([N+](=O)[O-])cc2)C(C(=O)NCCCN2CCC(c3ccc(OC)cc3)(c3ccc(OC)cc3)CC2)=C(CC)N1 (stereo not drawn) [Example 103, 5-Carboxamido-2,6-diethyl-1,4-dihydro-3-{N-[3-(4,4-bis-(4-methoxyphenyl)piperidin-1-yl)propyl]}carboxamido}-4-(4-nitrophenyl)pyridine hydrochloride]	6.31	182	10.7				
CCC1=C(C(N)=O)C(c2ccc([N+](=O)[O-])cc2)C(C(=O)NCCCN2CCC3(CC2)C(=O)NCN3c2ccccc2)=C(CC)N1 (stereo not drawn) [Example 105, 5-Carboxamido-2,6-diethyl-1,4-dihydro-4-(4-nitrophenyl)-3-{N-[3-(1-phenyl-4-oxo-1,3,8-triazaspiro[4.3]decan-8-yl)propyl]}carboxamidopyridine hydrochloride hydrate]	5.90	3160	692				
CCC1=C(C(N)=O)C(c2ccc([N+](=O)[O-])cc2)C(C(=O)NCCCN2CCC(C)(c3ccccc3)CC2)=C(CC)N1 (stereo not drawn) [Example 106, 5-Carboxamido-2,6-diethyl-1,4-dihydro-3-{N-[3-(4-Methyl-4-phenylpiperidin-1-yl)propyl]}carboxamido-4-(4-nitrophenyl)pyridine hydrochloride hydrate]				324	6.03	7.82	
CCC1=C(C(=O)NCCCN2CCC(c3ccccc3)(c3ccccc3)CC2)C(c2cccc(OC)c2)C(C(=O)NCCCN2CCC(c3ccccc3)(c3ccccc3)CC2)=C(CC)N1 [Example 112, 2,6-Diethyl-1,4-dihydro-4-(3-methoxyphenyl)-3,5-bis(N-(3-(4,4-diphenylpiperidin-1-yl)propyl)carboxamido)-pyridine]				257	7.63	7.61	
CCC1=C(C(=O)NCCCN2CCC(c3ccccc3)(c3ccccc3)CC2)C(c2cccc(OC)c2)C(C(N)=O)=C(C)N1 (stereo not drawn) [Example 113, 5-Carboxamide-2-ethyl-1,4-dihydro-4-(3-methoxyphenyl)-6-methyl-3-(N-(3-(4,4-diphenylpiperidin-1-yl)propyl)carboxamido)-pyridine]				759	6.46	7.75	
CCC1=C(C(=O)NCCCN2CCC(c3ccccc3)(c3ccccc3)CC2)C(c2ccc(N)cc2)C(C(=O)OC)=C(C)N1 (stereo not drawn) [Example 114, 4-(4-Aminophenyl)-2-ethyl-1,4-dihydro-5-methoxycarbonyl-6-methyl-3-(N-(3-(4,4-diphenylpiperidin-1-yl)propyl)carboxamido)-pyridine]	5.68	204	10.2				

Reference: patent publication US6608086B2, “Dihydropyridines and new uses thereof” (Synaptic Pharmaceutical Corporation, priority 1993, dated 2003)
